Data published in patent US9187471B2, “Pyrido [4,3-b] indole and pyrido [3,4-b] indole derivatives and methods of use” (Medivation Technologies, Inc., priority 2010, dated 2015).

Experiments:
[1] = molecular target: T1, human recombinant histamine H1 receptor (Homo sapiens, UniProt P35367); assay: Histamine H1 radioligand binding ([3H]Pyrilamine); settings: read-out: Histamine H1 Binding (1 μM), percent inhibition of specific binding; compound at 1 μM; 1.2 nM [3H]Pyrilamine
T1 construct: expressed in transfected cells; host or cells: CHO-K1
Outline: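 Results expressed as percent inhibition of specific [3H]pyrilamine binding, counted on filters after washing. Receptor source: CHO-K1 cells expressing recombinant human H1, in modified Tris-HCl buffer (50 mM, pH 7.4; 2 mM MgCl2, 100 mM NaCl, 250 mM sucrose). 1 μM pyrilamine defined non-specific binding.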

[2] = molecular target: T2, human recombinant adrenergic α2C receptor (Homo sapiens, UniProt P18825); assay: Adrenergic α2C radioligand binding ([3H]MK-912); settings: read-out: Adrenergic (0.1 μM) a2C, percent inhibition of specific binding; compound at 0.1 μM; 1 nM [3H]MK-912
T2 construct: expressed in transfected cells; host or cells: insect Sf9 cells
T2 sequence (P18825 1-462): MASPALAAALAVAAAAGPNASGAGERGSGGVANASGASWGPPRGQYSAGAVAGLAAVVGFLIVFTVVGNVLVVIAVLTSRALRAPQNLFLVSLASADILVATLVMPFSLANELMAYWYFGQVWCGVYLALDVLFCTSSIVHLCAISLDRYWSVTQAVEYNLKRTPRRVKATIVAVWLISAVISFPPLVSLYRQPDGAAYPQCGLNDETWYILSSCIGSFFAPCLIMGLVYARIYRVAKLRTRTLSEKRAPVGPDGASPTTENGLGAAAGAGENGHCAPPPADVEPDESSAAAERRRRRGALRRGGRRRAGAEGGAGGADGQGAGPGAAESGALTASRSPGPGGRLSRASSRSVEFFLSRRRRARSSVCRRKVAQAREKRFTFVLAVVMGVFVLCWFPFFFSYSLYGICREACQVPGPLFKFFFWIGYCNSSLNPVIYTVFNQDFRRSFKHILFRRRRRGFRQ
Outline: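 Membranes from Sf9 cells expressing the human receptor, in 50 mM Tris-HCl pH 7.4 with 12.5 mM MgCl2 and 2 mM EDTA, incubated with compound and 1 nM [3H]MK-912 for 60 min at 25 °C. Non-specific binding defined with 10 μM WB-4101. Filter-bound radioactivity counted; percent inhibition of specific binding reported.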

[3] = molecular target: T3, human recombinant dopamine D2L receptor (Homo sapiens, UniProt P14416); assay: Dopamine D2L radioligand binding ([3H]Spiperone); settings: 0.16 nM [3H]Spiperone; for inhibition at 1 µM: read-out: Dopamine D2L (1 μM), percent inhibition of specific binding, compound at 1 μM
T3 construct: expressed in transfected cells; host or cells: CHO
Experimental: Non-specific binding was estimated in the presence of 10 μM Haloperidol. Receptor proteins were filtered and washed, the filters were then counted to determine [^3H]Spiperone specifically bound.

[4] = molecular target: T4, human recombinant serotonin (5-Hydroxytryptamine) 5-HT2A receptor (Homo sapiens, UniProt P28223); assay: Serotonin 5-HT2A radioligand binding ([3H]Ketanserin); settings: compound at 0.1 μM; read-out: Inhibition of ligand binding, Serotonin 5-HT2A (percent inhibition of specific binding)
T4 construct: expressed in transfected cells; host or cells: CHO-K1
Experimental: Compounds of the invention were incubated with 0.5 nM [^3H]Ketanserin for 60 min at 25° C. Non-specific binding was estimated in the presence of 1 μM Mianserin. Receptor proteins were filtered and washed, the filters were then counted to determine [^3H]Ketanserin specifically bound.

[5] = molecular target: T5, human recombinant serotonin (5-Hydroxytryptamine) 5-HT2C receptor (Homo sapiens, UniProt P28335); assay: Serotonin 5-HT2C radioligand binding ([3H]Mesulergine); settings: compound at 0.1 μM; read-out: Inhibition of ligand binding, Serotonin 5-HT2C (percent inhibition of specific binding)
T5 construct: expressed in transfected cells; host or cells: CHO-K1
T5 sequence (P28335 33-458): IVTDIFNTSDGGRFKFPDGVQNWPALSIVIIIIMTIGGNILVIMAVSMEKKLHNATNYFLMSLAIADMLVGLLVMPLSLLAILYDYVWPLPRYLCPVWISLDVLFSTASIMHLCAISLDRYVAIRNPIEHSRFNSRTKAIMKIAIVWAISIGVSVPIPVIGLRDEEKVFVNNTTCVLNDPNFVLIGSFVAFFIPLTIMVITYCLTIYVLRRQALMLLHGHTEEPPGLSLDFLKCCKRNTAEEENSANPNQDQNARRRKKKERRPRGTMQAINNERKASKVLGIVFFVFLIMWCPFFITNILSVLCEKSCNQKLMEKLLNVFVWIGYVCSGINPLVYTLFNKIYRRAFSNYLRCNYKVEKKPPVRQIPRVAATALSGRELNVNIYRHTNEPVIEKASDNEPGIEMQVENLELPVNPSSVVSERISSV
Experimental: Compounds of the invention were incubated with 1 nM [^3H]Mesulergine for 60 min at 25° C. Non-specific binding was estimated in the presence of 1 μM Mianserin. Receptor proteins were filtered and washed, the filters were then counted to determine [^3H]Mesulergine specifically bound.

[6] = molecular target: T6, human recombinant serotonin (5-Hydroxytryptamine) 5-HT5A receptor (Homo sapiens, UniProt P47898); assay: Serotonin 5-HT5A radioligand binding ([3H]LSD); settings: compound at 0.1 μM; read-out: Inhibition of ligand binding, Serotonin 5-HT5A (percent inhibition of specific binding)
T6 construct: expressed in transfected cells; host or cells: CHO-K1
Experimental: Compounds of the invention were incubated with 1.7 nM [^3H]Lysergic acid diethylamide (LSD) for 60 min at 37° C. […] Receptor proteins were filtered and washed, the filters were counted to determine [^3H]LSD specifically bound.

[7] = molecular target: T7, human recombinant serotonin (5-Hydroxytryptamine) 5-HT6 receptor (Homo sapiens, UniProt P50406); assay: Serotonin 5-HT6 radioligand binding ([3H]LSD); settings: compound at 0.1 μM; read-out: Inhibition of ligand binding, Serotonin 5-HT6 (percent inhibition of specific binding)
T7 construct: expressed in transfected cells; host or cells: HeLa
Source text: Receptor proteins were filtered and washed, the filters were then counted to determine [3H]LSD specifically bound.

[8] = molecular target: T8, human recombinant serotonin (5-Hydroxytryptamine) 5-HT7 receptor (Homo sapiens, UniProt P34969); assay: Serotonin 5-HT7 radioligand binding ([3H]LSD); settings: compound at 0.1 μM; read-out: Inhibition of ligand binding, Serotonin 5-HT7 (percent inhibition of specific binding)
T8 construct: expressed in transfected cells; host or cells: CHO
Experimental: Lysergic acid diethylamide (LSD) for 120 min. at 25° C. […] Receptor proteins were filtered and washed, the filters were then counted to determine [^3H]LSD specifically bound.

T3 sequence (P14416 whole entry): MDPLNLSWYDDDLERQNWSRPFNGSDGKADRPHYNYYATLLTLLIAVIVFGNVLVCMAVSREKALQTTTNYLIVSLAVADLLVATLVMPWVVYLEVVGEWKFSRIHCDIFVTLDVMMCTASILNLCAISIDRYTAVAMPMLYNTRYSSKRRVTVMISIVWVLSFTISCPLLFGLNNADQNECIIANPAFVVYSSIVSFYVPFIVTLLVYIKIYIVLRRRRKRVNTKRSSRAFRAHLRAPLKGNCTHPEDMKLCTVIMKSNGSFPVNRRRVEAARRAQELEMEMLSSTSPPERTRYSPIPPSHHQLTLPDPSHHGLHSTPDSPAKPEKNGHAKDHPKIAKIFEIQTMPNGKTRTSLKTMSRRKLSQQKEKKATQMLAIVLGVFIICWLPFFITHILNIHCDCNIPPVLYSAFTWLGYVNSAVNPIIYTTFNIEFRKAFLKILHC
T6 sequence (P47898 whole entry): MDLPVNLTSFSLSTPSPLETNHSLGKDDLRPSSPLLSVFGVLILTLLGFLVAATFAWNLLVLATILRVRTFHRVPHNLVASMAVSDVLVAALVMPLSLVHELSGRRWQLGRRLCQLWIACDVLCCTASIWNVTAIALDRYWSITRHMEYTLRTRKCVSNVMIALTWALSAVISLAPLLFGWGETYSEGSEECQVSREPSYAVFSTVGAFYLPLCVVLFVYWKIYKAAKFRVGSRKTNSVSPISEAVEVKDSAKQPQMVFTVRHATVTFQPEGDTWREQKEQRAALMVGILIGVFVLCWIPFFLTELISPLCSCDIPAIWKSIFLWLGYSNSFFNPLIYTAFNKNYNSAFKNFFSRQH
T7 sequence (P50406 whole entry): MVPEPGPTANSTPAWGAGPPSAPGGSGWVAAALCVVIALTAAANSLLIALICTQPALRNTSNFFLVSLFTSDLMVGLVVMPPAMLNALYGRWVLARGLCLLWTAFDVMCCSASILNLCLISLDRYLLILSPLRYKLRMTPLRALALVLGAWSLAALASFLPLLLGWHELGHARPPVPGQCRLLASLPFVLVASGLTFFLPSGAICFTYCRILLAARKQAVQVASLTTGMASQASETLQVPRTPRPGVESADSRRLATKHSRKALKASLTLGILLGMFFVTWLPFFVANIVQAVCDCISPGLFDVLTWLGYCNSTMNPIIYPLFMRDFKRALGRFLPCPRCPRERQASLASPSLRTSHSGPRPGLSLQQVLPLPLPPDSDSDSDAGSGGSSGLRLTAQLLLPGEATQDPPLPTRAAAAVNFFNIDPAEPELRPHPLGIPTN
T4 sequence (P28223 whole entry): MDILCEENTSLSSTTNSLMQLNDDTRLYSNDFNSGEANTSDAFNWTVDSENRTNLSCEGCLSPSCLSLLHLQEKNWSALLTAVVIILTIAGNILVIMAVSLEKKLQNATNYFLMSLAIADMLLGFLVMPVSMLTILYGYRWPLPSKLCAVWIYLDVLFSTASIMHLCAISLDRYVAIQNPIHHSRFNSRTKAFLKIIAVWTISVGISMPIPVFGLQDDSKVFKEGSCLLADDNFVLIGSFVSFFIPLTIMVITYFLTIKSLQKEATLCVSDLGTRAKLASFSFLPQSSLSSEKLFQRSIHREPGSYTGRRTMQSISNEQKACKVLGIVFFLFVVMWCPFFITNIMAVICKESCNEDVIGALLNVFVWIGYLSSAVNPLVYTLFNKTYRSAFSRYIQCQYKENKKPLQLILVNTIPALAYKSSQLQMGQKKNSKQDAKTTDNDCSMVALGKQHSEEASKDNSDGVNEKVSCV
T1 sequence (P35367 whole entry): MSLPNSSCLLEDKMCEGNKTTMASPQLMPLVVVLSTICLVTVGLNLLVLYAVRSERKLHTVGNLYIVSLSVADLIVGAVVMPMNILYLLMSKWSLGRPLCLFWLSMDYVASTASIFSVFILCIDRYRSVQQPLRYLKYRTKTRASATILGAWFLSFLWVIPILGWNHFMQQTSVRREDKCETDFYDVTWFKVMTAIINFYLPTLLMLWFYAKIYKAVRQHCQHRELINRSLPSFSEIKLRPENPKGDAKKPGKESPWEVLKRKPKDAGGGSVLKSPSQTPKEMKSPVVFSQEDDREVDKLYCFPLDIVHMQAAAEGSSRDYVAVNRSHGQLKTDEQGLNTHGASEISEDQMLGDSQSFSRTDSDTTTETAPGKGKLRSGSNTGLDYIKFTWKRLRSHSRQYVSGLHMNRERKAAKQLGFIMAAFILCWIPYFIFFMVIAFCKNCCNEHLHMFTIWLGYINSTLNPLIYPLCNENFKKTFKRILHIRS
T8 sequence (P34969 whole entry): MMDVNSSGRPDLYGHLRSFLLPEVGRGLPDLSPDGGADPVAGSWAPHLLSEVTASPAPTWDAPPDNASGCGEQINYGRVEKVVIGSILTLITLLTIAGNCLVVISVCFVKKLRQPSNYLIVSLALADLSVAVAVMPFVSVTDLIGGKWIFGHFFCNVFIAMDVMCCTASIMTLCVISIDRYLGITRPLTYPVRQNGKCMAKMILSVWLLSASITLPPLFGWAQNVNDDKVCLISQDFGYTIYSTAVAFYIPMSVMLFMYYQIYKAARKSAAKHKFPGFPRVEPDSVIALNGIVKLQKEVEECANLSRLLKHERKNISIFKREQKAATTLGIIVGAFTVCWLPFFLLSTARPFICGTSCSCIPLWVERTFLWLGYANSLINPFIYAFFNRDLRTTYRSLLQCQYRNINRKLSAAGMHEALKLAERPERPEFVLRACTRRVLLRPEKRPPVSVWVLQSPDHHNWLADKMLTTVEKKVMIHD

Compound	inhibition at 1 µM [1] [%]	inhibition at 0.1 µM [2] [%]	inhibition at 1 µM [3] [%]	inhibition at 0.1 µM [4] [%]	inhibition at 0.1 µM [5] [%]	inhibition at 0.1 µM [6] [%]	inhibition at 0.1 µM [7] [%]	inhibition at 0.1 µM [8] [%]	inhibition at 0.1 µM ([3]; read-out: Dopamine D2L (0.1 μM), percent inhibition of specific binding, compound at 0.1 μM) [%]
CC(=O)Nc1ccc(-c2ccccc2-n2c3c(c4cc(C)ccc42)CN(C)CC3)cn1 [Compound No. 83, N-(5-(2-(2,8-dimethyl-3,4-dihydro-1H-pyrido[4,3-b]indol-5(2H)-yl)phenyl)pyridin-2-yl)acetamide]	22	-5	15	41	15	11	3	15	
Cc1ccc2c(c1)c1c(n2-c2ccc3ccncc3c2)CCN(C)C1 [Compound No. 74, 5-(isoquinolin-7-yl)-2,8-dimethyl-2,3,4,5-tetrahydro-1H-pyrido[4,3-b]indole]	18	11	56	34	51	21	14	2	
Cc1ccc2c(c1)c1c(n2-c2ccc(-c3ccc(C)nc3)cn2)CCN(C)C1 [Compound No. 156, 2,8-dimethyl-5-(6′-methyl-3,3′-bipyridin-6-yl)-2,3,4,5-tetrahydro-1H-pyrido[4,3-b]indole]	12	-13		90	96	41	-5	28	-7
Cc1ccc2c(c1)c1c(n2-c2cscc2-c2ccc3cnccc3c2)CCN(C)C1 [Compound No. 68]	30	29	9	35	10	78	18	99	
Cc1ccc2c(c1)c1c(n2-c2cccc(-c3cnc(N(C)C)nc3)c2)CCN(C)C1 [Compound 42, 5-(3-(2,8-dimethyl-3,4-dihydro-1H-pyrido[4,3-b]indol-5(2H)-yl)phenyl)-N,N-dimethylpyrimidin-2-amine]	0	-11	17	62	32	11	17	31	
Cc1ccc2c(c1)c1c(n2-c2cccc(-c3ccc(C)s3)c2)CCN(C)C1 [Compound No. 64, 2,8-dimethyl-5-(3-(5-methylthiophen-2-yl)phenyl)-2,3,4,5-tetrahydro-1H-pyrido[4,3-b]indole]	23	12	24	102	83	30	-3	31	
Cc1ccc2c(c1)c1c(n2-c2ccccc2-c2ccc(F)nc2)CCN(C)C1 [Compound No. 84, 5-(2-(6-fluoropyridin-3-yl)phenyl)-2,8-dimethyl-2,3,4,5-tetrahydro-1H-pyrido[4,3-b]indole]	26	23	8	89	75	29	20	25	
Cc1ccc2c(c1)c1c(n2-c2cccc(-c3cc4ccccc4s3)c2)CCN(C)C1 [Compound 51, 5-(3-(benzo[b]thiophen-2-yl)phenyl)-2,8-dimethyl-2,3,4,5-tetrahydro-1H-pyrido[4,3-b]indole]	36	-9	3	86	55	5	15	13	
Cc1ccc2c(c1)c1c(n2-c2ccc(-c3cnn(C)c3)cn2)CCN(C)C1 [Compound No. 134, 2,8-dimethyl-5-(5-(1-methyl-1H-pyrazol-4-yl)pyridin-2-yl)-2,3,4,5-tetrahydro-1H-pyrido[4,3-b]indole]	6	-2	1	88	96	-4	-2	4	
Cc1ccc2c(c1)c1c(n2-c2ccccc2-c2ccc3c(ccn3C)c2)CCN(C)C1 [Compound No. 85, 2,8-dimethyl-5-(2-(1-methyl-1H-indol-5-yl)phenyl)-2,3,4,5-tetrahydro-1H-pyrido[4,3-b]indole]	8	46	11	49	50	50	49	26	
Cc1ccc2c(c1)c1c(n2-c2ccc(-c3cncc4ccccc34)cn2)CCN(C)C1 [Compound No. 135, 5-(5-(isoquinolin-4-yl)pyridin-2-yl)-2,8-dimethyl-2,3,4,5-tetrahydro-1H-pyrido[4,3-b]indole]	10	13	12	72	88	77	6	22	
Cc1ccc2c(c1)c1c(n2-c2ccc(-c3cccc4[nH]ncc34)cn2)CCN(C)C1 [Compound No. 147, 5-(5-(1H-indazol-4-yl)pyridin-2-yl)-2,8-dimethyl-2,3,4,5-tetrahydro-1H-pyrido[4,3-b]indole]	8	1	33	62	69	23	15	14	
